In publication PMC6271965, “Inhibition of GlcNAc-Processing Glycosidases by C-6-Azido-NAG-Thiazoline and Its Derivatives” (Molecules, 2014):
Where two headings read alike, the source gives them in different places.

Legend:
Experiment in all cases: pNP-β-GlcNAc hydrolysis, kinetic assay at […] nm
Type in all cases: biochemical
[1] = biological target: T1, β-N-acetylhexosaminidase from Streptomyces plicatus (Streptomyces plicatus, UniProt O85361); conditions: read-out: KI [μM] / NAG-thiazoline (1)
T1 construct: gene hex; synthetic gene, His6-tagged fusion in pET-15b (NdeI/BamHI), E. coli BL21(DE3) pLysS, Ni-NTA purified; GH20
T1 sequence (O85361 1-506): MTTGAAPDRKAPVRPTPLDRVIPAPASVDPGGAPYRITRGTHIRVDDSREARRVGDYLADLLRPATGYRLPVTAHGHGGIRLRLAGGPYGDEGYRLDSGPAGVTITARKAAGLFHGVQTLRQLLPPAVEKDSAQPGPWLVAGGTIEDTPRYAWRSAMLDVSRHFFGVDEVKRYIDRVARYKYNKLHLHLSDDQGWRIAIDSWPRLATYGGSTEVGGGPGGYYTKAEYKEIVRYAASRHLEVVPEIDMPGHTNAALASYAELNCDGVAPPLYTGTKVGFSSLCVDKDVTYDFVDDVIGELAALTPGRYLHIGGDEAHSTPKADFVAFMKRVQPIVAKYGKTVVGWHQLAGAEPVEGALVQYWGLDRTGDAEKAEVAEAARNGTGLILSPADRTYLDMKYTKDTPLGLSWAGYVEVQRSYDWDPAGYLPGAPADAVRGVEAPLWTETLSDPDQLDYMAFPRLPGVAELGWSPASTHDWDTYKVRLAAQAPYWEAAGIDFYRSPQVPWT

[2] = biological target: T2, β-N-acetylhexosaminidase from Talaromyces flavus (Talaromyces flavus, UniProt G5DAA0)
T2 construct: recombinant, secreted from Pichia pastoris, purified by cation exchange chromatography; GH20
T2 sequence (G5DAA0 18-628): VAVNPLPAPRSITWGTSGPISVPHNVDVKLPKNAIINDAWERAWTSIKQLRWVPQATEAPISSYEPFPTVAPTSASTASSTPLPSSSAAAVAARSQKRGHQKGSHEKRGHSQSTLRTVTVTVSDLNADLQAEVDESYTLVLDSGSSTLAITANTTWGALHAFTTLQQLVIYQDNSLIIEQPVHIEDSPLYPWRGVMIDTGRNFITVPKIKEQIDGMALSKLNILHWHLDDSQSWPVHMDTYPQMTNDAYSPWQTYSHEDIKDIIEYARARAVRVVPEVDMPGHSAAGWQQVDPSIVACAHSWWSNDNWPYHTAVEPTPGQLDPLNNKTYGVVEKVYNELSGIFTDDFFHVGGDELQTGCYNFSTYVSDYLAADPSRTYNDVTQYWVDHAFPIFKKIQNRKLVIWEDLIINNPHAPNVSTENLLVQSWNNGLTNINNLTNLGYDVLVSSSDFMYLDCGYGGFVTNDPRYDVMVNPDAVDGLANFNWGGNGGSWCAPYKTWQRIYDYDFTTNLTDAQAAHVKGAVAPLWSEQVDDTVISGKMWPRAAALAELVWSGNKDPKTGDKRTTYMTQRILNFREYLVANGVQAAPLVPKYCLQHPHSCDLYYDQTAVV

[3] = biological target: T3, O-GlcNAcase from Bacteroides thetaiotaomicron (Bacteroides thetaiotaomicron, UniProt Q89ZI2)
T3 construct: gene BT_4395; gene from D. Vocadlo; GH84
T3 sequence (Q89ZI2 22-737): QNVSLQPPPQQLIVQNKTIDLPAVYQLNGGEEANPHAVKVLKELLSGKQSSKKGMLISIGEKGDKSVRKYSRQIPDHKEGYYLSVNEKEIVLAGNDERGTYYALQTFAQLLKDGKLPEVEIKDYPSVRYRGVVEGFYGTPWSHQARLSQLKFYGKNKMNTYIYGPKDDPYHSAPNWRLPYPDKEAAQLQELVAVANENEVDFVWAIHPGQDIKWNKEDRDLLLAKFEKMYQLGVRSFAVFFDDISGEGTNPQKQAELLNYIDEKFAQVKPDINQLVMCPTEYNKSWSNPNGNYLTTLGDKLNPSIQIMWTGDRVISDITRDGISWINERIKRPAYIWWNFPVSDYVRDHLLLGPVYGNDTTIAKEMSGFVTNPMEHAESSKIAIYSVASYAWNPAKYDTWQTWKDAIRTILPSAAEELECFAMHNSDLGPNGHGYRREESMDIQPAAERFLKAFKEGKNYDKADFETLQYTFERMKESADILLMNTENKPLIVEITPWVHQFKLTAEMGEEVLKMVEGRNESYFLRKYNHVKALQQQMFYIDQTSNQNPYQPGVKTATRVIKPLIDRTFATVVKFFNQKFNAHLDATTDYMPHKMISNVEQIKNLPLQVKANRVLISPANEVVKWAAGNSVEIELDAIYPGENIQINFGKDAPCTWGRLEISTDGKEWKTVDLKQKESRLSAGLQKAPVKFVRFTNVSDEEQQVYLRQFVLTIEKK

[4] = biological target: T4, human O-GlcNAcase (Homo sapiens, UniProt O60502); conditions: read-out: KI [μM] / C-6-azido-NAG-thiazoline (2)
T4 construct: gene OGA; gene from D. Vocadlo; GH84
T4 sequence (O60502 1-916): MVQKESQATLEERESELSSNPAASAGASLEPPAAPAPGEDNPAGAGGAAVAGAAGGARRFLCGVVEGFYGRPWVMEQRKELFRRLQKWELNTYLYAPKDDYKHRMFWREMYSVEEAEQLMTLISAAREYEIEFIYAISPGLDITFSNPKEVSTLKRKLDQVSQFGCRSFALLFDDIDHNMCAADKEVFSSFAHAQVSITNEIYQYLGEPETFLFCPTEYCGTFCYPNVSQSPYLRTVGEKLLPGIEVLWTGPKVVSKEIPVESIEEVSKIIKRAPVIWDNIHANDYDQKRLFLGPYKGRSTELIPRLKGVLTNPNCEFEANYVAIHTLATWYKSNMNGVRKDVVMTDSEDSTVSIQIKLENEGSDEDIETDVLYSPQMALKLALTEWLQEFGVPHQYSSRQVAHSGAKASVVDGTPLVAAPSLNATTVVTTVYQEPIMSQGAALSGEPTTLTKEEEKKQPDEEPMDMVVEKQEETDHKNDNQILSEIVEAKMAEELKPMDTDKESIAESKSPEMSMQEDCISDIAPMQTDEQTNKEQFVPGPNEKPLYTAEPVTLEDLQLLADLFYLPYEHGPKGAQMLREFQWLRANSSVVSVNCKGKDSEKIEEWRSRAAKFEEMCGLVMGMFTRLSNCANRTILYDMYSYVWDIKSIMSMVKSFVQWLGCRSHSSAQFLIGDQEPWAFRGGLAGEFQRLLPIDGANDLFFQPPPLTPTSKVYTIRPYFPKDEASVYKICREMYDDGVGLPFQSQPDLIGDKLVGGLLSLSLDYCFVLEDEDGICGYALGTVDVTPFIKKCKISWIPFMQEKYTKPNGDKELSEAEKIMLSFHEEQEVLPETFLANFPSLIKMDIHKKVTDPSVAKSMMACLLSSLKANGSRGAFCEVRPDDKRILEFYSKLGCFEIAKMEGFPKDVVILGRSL

[5] = read-out: KI [μM] / NAG-thiazoline (1)
[6] = read-out: KI [μM] / C-6-azido-NAG-thiazoline (2)

CC1=N[C@@H]2[C@@H](O)[C@H](O)[C@@H](CO)O[C@@H]2S1 [compound 1, 1,2-Dideoxy-2'-methyl-α-D-glucopyrano-[2,1-d]-∆2'-thiazoline]
Ki [1]: 24 ± 5 µM | Ki [2, 5]: 42.7 ± 1.9 µM | Ki [3, 5]: 0.029 ± 0.003 µM

CC1=N[C@@H]2[C@@H](O)[C@H](O)[C@@H](CN=[N+]=[N-])O[C@@H]2S1 [compound 2, 6-Azido-1,2-dideoxy-2'-methyl-α-D-glucopyrano-[2,1-d]-∆2'-thiazoline]
Ki [2, 6]: 212 ± 16.3 µM | Ki [4]: 19.3 ± 11.9 µM | Ki [3, 6]: 3.1 ± 0.3 µM
